Laboratory results as given in patent US20230129359A1, “MUSCARINIC RECEPTOR 4 ANTAGONISTS AND METHODS OF USE” (Neurocrine Biosciences, Inc., priority 2020, published 2023).

These compounds were tested against T1, human M4 receptor (Homo sapiens, UniProt P08173) (assay: Radioligand ([3H]N-methylscopolamine) binding assay, membranes from CHO cells expressing human M4 receptor). Settings: Ki against human M4 receptor; membranes from CHO cells; tritiated N-methylscopolamine 1.5 nM; read-out: K.
T1 construct: expressed in transfected cells; host or cells: CHO cells
T1 sequence (P08173 1-479): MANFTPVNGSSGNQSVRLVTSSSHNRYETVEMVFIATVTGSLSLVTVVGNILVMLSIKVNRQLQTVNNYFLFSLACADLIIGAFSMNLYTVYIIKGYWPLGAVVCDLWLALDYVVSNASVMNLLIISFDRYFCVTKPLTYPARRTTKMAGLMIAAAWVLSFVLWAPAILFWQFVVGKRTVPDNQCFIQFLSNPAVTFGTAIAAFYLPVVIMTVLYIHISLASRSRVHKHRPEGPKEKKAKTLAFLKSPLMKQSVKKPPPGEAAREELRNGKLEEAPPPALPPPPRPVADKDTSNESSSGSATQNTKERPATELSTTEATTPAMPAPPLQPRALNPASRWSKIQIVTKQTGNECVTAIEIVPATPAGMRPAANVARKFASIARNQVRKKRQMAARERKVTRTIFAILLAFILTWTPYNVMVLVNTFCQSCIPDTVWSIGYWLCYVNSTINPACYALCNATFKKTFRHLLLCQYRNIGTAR
How it was run: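 Ki values derive from displacement of tritiated N-methylscopolamine (1.5 nM) from human M4 receptor in CHO membranes. Membranes, radioligand and twelve-point compound series were incubated together at 37 °C for 90 minutes in pH 7.4 HEPES/NaCl/MgCl2/EDTA buffer. Rapid vacuum filtration over polyethylenimine-pretreated filters was followed by radioactivity counting.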

Row | Compound | Ki [nM]
1 | C[C@@H]1CN(c2nc3ccc(F)cc3s2)C[C@H](C)N1C(=O)NC1CC2(C1)CN(Cc1ccccc1)C2 [Compound 231, (2R,6S)-N-{2-benzyl-2-azaspiro[3.3]heptan-6-yl}-4-(6-fluoro-1,3-benzothiazol-2-yl)-2,6-dimethylpiperazine-1-carboxamide] | < 10
2 | C[C@@H]1CN(c2nc3ccc(F)cc3s2)CCN1C(=O)NC1CC2(C1)CN(Cc1ccccc1)C2 [Compound 234, (2R)-N-{2-benzyl-2-azaspiro[3.3]heptan-6-yl}-4-(6-fluoro-1,3-benzothiazol-2-yl)-2-methylpiperazine-1-carboxamide] | < 10
3 | COc1ccc2nc(N3C[C@@H](C)N(C(=O)NC4CC5(C4)CN(Cc4ccccc4)C5)[C@H](C)C3)sc2c1 [Compound 242, (2R,6R)-N-{2-benzyl-2-azaspiro[3.3]heptan-6-yl}-4-(6-methoxy-1,3-benzothiazol-2-yl)-2,6-dimethylpiperazine-1-carboxamide] | < 10
4 | C[C@@H]1CN(c2nc3ccccc3s2)CCN1C(=O)NC1CC2(C1)CN(Cc1ccccc1)C2 [Compound 245, (2R)-4-(1,3-benzothiazol-2-yl)-N-{2-benzyl-2-azaspiro[3.3]heptan-6-yl}-2-methylpiperazine-1-carboxamide] | 10 to 100
5 | C[C@@H]1CN(c2ncc(OC(F)F)cn2)C[C@H](C)N1C(=O)NC1CC2(C1)CN(Cc1ccccc1)C2 [Compound 247, (2R,6S)-N-{2-benzyl-2-azaspiro[3.3]heptan-6-yl}-4-[5-(difluoromethoxy)pyrimidin-2-yl]-2,6-dimethylpiperazine-1-carboxamide] | 10 to 100
6 | C[C@@H]1CN(c2ncc(F)cn2)C[C@H](C)N1C(=O)NC1CC2(C1)CN(Cc1ccccc1)C2 [Compound 250, (2R,6S)-N-{2-benzyl-2-azaspiro[3.3]heptan-6-yl}-4-(5-fluoropyrimidin-2-yl)-2,6-dimethylpiperazine-1-carboxamide] | 100 to 1000
7 | C[C@@H]1CN(c2ncc(C#N)cn2)C[C@H](C)N1C(=O)NC1CC2(C1)CN(Cc1ccc(Cl)cc1)C2 [Compound 251, (2R,6S)-N-{2-[(4-chlorophenyl)methyl]-2-azaspiro[3.3]heptan-6-yl}-4-(5-cyanopyrimidin-2-yl)-2,6-dimethylpiperazine-1-carboxamide] | 10 to 100
8 | C[C@@H]1CN(c2ncc(C(F)(F)F)cn2)C[C@@H](C)N1C(=O)NC1CC2(C1)CN(Cc1ccc(Cl)cc1)C2 [Compound 255, (2R,6R)-N-{2-[(4-chlorophenyl)methyl]-2-azaspiro[3.3]heptan-6-yl}-2,6-dimethyl-4-[5-(trifluoromethyl)pyrimidin-2-yl]piperazine-1-carboxamide] | 10 to 100
9 | C[C@@H]1CN(c2ncc(C(F)(F)F)cn2)CCN1C(=O)NC1CC2(C1)CN(Cc1ccc(Cl)cc1)C2 [Compound 257, (2R)-N-{2-[(4-chlorophenyl)methyl]-2-azaspiro[3.3]heptan-6-yl}-2-methyl-4-[5-(trifluoromethyl)pyrimidin-2-yl]piperazine-1-carboxamide] | 100 to 1000
10 | C[C@@H]1CN(c2cnc(C(F)(F)F)cn2)C[C@@H](C)N1C(=O)NC1CC2(C1)CN(Cc1ccc(Cl)cc1)C2 [Compound 259, (2R,6R)-N-{2-[(4-chlorophenyl)methyl]-2-azaspiro[3.3]heptan-6-yl}-2,6-dimethyl-4-[5-(trifluoromethyl)pyrazin-2-yl]piperazine-1-carboxamide] | 100 to 1000

More lines, now with the values ahead:

Row | Ki [nM] | Compound
11 | < 10 | COc1ccc2nc(N3C[C@@H](C)N(C(=O)NC4CC5(C4)CN(Cc4ccccc4)C5)C[C@@H]3C)cnc2c1 [Compound 222, (2R,5S)-N-{2-benzyl-2-azaspiro[3.3]heptan-6-yl}-4-(6-methoxyquinoxalin-2-yl)-2,5-dimethylpiperazine-1-carboxamide]
12 | 10 to 100 | C[C@@H]1CN(c2cnc3ccccc3n2)CCN1C(=O)NC1CC2(C1)CN(Cc1ccccc1)C2 [Compound 224, (2R)-N-{2-benzyl-2-azaspiro[3.3]heptan-6-yl}-2-methyl-4-(quinoxalin-2-yl)piperazine-1-carboxamide]
13 | < 10 | C[C@@H]1CN(c2nc3ccc(C(F)(F)F)cc3s2)CCN1C(=O)NC1CC2(C1)CN(Cc1ccccc1)C2 [Compound 225, (2R)-N-{2-bnezyl-2-azaspiro[3.3]heptan-6-yl}-2-methyl-4-[6-(trifluoromethyl)-1,3-benzothiazol-2-yl]piperazine-1-carboxamide]
14 | < 10 | C[C@@H]1CN(c2ncc(C(F)(F)F)cc2F)C[C@H](C)N1C(=O)NC1CC2(C1)CN(Cc1ccccc1)C2 [Compound 227, (2R,6S)-N-{2-benzyl-2-azaspiro[3.3]heptan-6-yl}-4-[3-fluoro-5-(trifluoromethyl)pyridin-2-yl]-2,6-dimethylpiperazine-1-carboxamide]
15 | < 10 | C[C@@H]1CN(c2nc3ccc(F)cc3s2)[C@@H](C)CN1C(=O)NC1CC2(C1)CN(Cc1ccccc1)C2 [Compound 233, (2R,5S)-N-{2-benzyl-2-azaspiro[3.3]heptan-6-yl}-4-(6-fluoro-1,3-benzothiazol-2-yl)-2,5-dimethylpiperazine-1-carboxamide]
16 | 10 to 100 | C[C@@H]1CN(c2cnc3cc(C(F)(F)F)ccc3n2)C[C@H](C)N1C(=O)NC1CC2(C1)CN(Cc1ccccc1)C2 [Compound 235, (2R,6S)-N-{2-benzyl-2-azaspiro[3.3]heptan-6-yl}-2,6-dimethyl-4-[6-(trifluoromethyl)quinoxalin-2-yl]piperazine-1-carboxamide]
17 | < 10 | C[C@@H]1CN(c2cnc3cc(C(F)(F)F)ccc3n2)[C@@H](C)CN1C(=O)NC1CC2(C1)CN(Cc1ccccc1)C2 [Compound 237, (2R,5S)-N-{2-benzyl-2-azaspiro[3.3]heptan-6-yl}-2,5-dimethyl-4-[6-(trifluoromethyl)quinoxalin-2-yl]piperazine-1-carboxamide]
18 | < 10 | C[C@@H]1CN(c2nc3ccccc3s2)[C@@H](C)CN1C(=O)NC1CC2(C1)CN(Cc1ccccc1)C2 [Compound 244, (2R,5S)-4-(1,3-benzothiazol-2-yl)-N-{2-benzyl-2-azaspiro[3.3]heptan-6-yl}-2,5-dimethylpiperazine-1-carboxamide]
19 | < 10 | C[C@@H]1CN(c2ncc(C(F)(F)F)c(N)n2)C[C@H](C)N1C(=O)NC1CC2(C1)CN(Cc1ccccc1)C2 [Compound 248, (2R,6S)-4-[4-amino-5-(trifluoromethyl)pyrimidin-2-yl]-N-{2-benzyl-2-azaspiro[3.3]heptan-6-yl}-2,6-dimethylpiperazine-1-carboxamide]
20 | < 10 | C[C@@H]1CN(c2ncc(C(F)(F)F)cn2)[C@@H](C)CN1C(=O)NC1CC2(C1)CN(Cc1ccc(Cl)cc1)C2 [Compound 256, (2R,5S)-N-{2-[(4-chlorophenyl)methyl]-2-azaspiro[3.3]heptan-6-yl}-2,5-dimethyl-4-[5-(trifluoromethyl)pyrimidin-2-yl]piperazine-1-carboxamide]
21 | 10 to 100 | C[C@@H]1CN(c2cnc(C(F)(F)F)cn2)[C@@H](C)CN1C(=O)NC1CC2(C1)CN(Cc1ccc(Cl)cc1)C2 [Compound 260, (2R,5S)-N-{2-[(4-chlorophenyl)methyl]-2-azaspiro[3.3]heptan-6-yl}-2,5-dimethyl-4-[5-(trifluoromethyl)pyrazin-2-yl]piperazine-1-carboxamide]
